Source: patent publication US8389739B1, “Modulators of retinoid-related orphan receptor gamma” (Orphagen Pharmaceuticals, priority 2006, dated 2013)
Like-named read-outs stand apart in the source and are kept apart here.

Experiments:
Assay in all cases: Crossreactive receptor transcriptional assay (Gal4 hybrid)
Type in all cases: cell-based
[1] = target: T1, hPR (progesterone receptor) (Homo sapiens, UniProt P06401)
T1 construct: 687-933; expressed in transfected cells; host or cells: CHO cells, transient transfection
T1 sequence (P06401 687-933): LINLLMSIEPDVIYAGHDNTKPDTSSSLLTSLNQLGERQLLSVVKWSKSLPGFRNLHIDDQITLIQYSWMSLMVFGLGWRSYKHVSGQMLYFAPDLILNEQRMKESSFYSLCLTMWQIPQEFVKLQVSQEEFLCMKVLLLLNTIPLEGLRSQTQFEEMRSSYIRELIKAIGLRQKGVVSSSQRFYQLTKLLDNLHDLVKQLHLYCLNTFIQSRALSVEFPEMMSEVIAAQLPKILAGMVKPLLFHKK

[2] = target: T2, hFXR (farnesoid X receptor) (Homo sapiens, UniProt Q96RI1)
T2 construct: 192-473; expressed in transfected cells; host or cells: CHO cells, transient transfection
T2 sequence (Q96RI1 192-472 isoform Q96RI1-2): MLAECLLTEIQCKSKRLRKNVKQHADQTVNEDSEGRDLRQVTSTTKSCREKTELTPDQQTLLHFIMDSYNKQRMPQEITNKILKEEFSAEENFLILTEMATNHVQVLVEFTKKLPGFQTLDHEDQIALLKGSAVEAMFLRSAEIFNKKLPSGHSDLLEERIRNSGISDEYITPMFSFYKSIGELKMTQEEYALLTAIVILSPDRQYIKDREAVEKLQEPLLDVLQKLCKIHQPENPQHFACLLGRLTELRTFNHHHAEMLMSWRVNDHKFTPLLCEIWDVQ

[3] = target: T3, hPPARγ (Homo sapiens, UniProt P37231)
T3 construct: 175-477; expressed in transfected cells; host or cells: CHO cells, transient transfection
T3 sequence (P37231 175-477 isoform P37231-2): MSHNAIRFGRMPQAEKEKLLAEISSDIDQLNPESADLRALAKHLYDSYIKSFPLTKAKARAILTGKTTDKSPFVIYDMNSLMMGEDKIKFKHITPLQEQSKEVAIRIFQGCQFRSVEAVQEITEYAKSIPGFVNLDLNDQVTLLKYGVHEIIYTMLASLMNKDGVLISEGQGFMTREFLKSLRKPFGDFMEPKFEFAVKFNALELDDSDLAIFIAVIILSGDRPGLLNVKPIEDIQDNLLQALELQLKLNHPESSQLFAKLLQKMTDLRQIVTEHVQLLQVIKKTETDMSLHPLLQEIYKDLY

[4] = target: T4, hRXRα (retinoid X receptor alpha) (Homo sapiens, UniProt P19793)
T4 construct: 203-462; expressed in transfected cells; host or cells: CHO cells, transient transfection
T4 sequence (P19793 203-462): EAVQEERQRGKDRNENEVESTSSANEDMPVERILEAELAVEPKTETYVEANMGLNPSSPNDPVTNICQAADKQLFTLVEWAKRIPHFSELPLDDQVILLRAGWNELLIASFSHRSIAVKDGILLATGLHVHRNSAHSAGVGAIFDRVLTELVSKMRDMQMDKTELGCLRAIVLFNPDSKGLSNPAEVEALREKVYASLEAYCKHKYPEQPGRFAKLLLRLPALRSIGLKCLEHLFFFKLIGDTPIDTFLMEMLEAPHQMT

[5] = target: T5, hPPARα (Homo sapiens, UniProt Q07869)
T5 construct: 166-468; expressed in transfected cells; host or cells: CHO cells, transient transfection
T5 sequence (Q07869 166-468): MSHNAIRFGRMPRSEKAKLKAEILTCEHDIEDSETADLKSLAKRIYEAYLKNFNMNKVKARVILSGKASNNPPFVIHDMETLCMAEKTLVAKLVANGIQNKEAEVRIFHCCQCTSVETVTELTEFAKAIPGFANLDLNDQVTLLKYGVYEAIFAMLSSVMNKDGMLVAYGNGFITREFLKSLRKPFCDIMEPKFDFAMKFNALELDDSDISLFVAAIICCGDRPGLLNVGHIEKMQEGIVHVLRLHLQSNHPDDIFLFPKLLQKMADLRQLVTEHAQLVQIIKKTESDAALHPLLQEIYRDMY

[6] = Table 6, read-out: Potency (EC50) at hPR
[7] = Table 6, read-out: Potency (EC50) at hFXR
[8] = Table 6, read-out: Potency (EC50) at hPPARγ
[9] = Table 6, read-out: Potency (EC50) at hRXRα
[10] = Table 6, RORγ ligands: no significant activity at 20 μM, read-out: Potency (EC50) at hPPARα

Measured: EC50

CC(=O)O[C@H]1CC[C@@]2(C)C(CC[C@]3(C)C2C(=O)C=C2C4[C@@H](C)[C@H](C)CC[C@]4(C(=O)O)CC[C@]23C)C1(C)C (stereo in doubt) [OR-13571, 10-Acetoxy-1,2,6a,6b,9,9,12a-heptamethyl-13-oxo-1,3,4,5,6,6a,6b,7,8,8a,9,10,11,12,12a,12b,13,14b-octadecahydro-2H-picene-4a-carboxylic acid]
> 10 µM: [1]; [6] | [2]; [7] | [3]; [8] | [4]; [9] | [5]; [10]

O=S(=O)(c1ccccc1)N(CC(F)(F)F)c1ccc(C(O)(C(F)(F)F)C(F)(F)F)cc1 [Compound T0901317, N-(2,2,2-Trifluoro-ethyl)-N-[4-(2,2,2-trifluoro-1-hydroxy-1-trifluoromethyl-ethyl)-phenyl]-benzenesulfonamide, reference compound]
> 10 µM: [1]; [6] | [3]; [8] | [4]; [9] | [5]; [10]

C[C@@H]1CC[C@@]2(OC1)O[C@H]1C[C@H]3[C@@H]4CC[C@H]5C[C@@H](O)CC[C@]5(C)[C@H]4C[C@@H](O)[C@]3(C)[C@H]1[C@@H]2C [OR-885, 5α,20α, 22α, 25D-SPIROSTAN-3β, 12β-DIOL]
> 10 µM: [1] | [2] | [3] | [4] | [5]

CCN(c1ccc(C(O)(C(F)(F)F)C(F)(F)F)cc1)S(=O)(=O)c1ccc([N+](=O)[O-])cc1 [OR-1050, N-Ethyl-4-nitro-N-[4-(2,2,2-trifluoro-1-hydroxy-1-trifluoromethyl-ethyl)-phenyl]-benzenesulfonamide]
> 10 µM: [1]; [6] | [2]; [7] | [3]; [8] | [4]; [9] | [5]; [10]

COc1c(C=NNc2nc(N3CCCCC3)nc(N3CCCCC3)n2)cccc1[N+](=O)[O-] [OR-2161, N-(4,6-Di-piperidin-1-yl-[1,3,5]triazin-2-yl)-N′-(2-methoxy-3-nitro-benzylidene)-hydrazine]
> 10 µM: [1]; [6] | [2]; [7] | [3]; [8] | [4]; [9] | [5]; [10]

COC(C)CCC(C)C1CCC2C3CC(O)C4CC(O)CCC4(C)C3CCC12C (stereo not shown) [OR-12872, 17-(4-Methoxy-1-methyl-pentyl)-10,13-dimethyl-hexadecahydro-cyclopenta[a]phenanthrene-3,6-diol]
> 10 µM: [1]; [6] | [2]; [7] | [3]; [8] | [4]; [9] | [5]; [10]

CCn1c(CNc2ccc(Cl)cc2)nnc1SCC(=O)Nc1cccc2ccccc12 [OR-133008, 2-{5-[(4-Chloro-phenylamino)-methyl]-4-ethyl-4H-[1,2,4]triazol-3-ylsulfanyl}-N-naphthalen-1-yl-acetamide]
> 10 µM: [1]; [6] | [2]; [7] | [3]; [8] | [4]; [9] | [5]; [10]
